The results in this text go back to patent publication US11382956B2, “Amylin analogues” (Zealand Pharma A/S, priority 2016, dated 2022).

Numbered stars: 1 amine (or outer) side, 2 acyl side, 3 side chain; on linkers, the order of the positions; unused ones are H or OH. Bridge positions count the residues as written; N and C are the ends. Square brackets hold non-standard residues; d marks the D form. Peptide text beside a SMILES is read from it. * marks the point of attachment. C20 diacid = O=C(O)CCCCCCCCCCCCCCCCCCC(=O)*; γGlu = O=C(O)[C@H](CCC(=O)[*:2])N[*:1]; Hyp = O=C(O)[C@@H]1C[C@@H](O)CN1; NMeI = CC[C@H](C)[C@H](NC)C(=O)O; Aad = N[C@@H](CCCC(=O)O)C(=O)O; Orn = NCCC[C@H](N)C(=O)O; Sar = CNCC(=O)O

Experiment [1] addresses T1, recombinant human amylin 3 receptor (hAMYR3) (Homo sapiens, UniProt O60896+P30988).
T1 construct: host or cells: human astrocytoma cell line 1321N1
T1 sequence (P30988 25-474): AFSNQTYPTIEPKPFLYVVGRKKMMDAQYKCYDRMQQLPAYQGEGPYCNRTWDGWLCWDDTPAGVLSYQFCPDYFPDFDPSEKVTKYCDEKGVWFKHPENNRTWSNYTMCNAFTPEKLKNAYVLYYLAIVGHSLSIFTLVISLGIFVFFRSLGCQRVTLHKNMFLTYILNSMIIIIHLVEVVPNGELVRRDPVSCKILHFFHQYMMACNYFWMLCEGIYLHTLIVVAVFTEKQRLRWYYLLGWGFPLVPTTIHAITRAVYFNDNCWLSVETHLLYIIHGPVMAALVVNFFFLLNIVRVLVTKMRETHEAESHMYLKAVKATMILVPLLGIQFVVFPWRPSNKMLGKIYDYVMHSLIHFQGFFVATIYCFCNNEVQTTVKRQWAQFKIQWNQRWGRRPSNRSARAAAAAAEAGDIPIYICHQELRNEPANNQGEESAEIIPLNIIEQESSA
T1 sequence (O60896 24-148 partner): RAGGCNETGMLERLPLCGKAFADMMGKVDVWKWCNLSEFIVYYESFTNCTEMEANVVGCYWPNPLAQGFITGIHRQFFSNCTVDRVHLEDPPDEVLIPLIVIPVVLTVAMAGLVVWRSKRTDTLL
In words: hAMYR3 cAMP assay (AlphaScreen) in 1321N1 cells. The format is cell-based. The conditions noted are these: cAMP formation, 45 min stimulation. The source says:
(§1) For the assessment of the in vitro activity of test peptides, cell lines expressing recombinant human calcitonin receptor (hCT-R) or recombinant human amylin 3 receptor (hAMYR3) in the background of the human astrocytoma cell line 1321N1 were purchased from DiscoveRx Corporation (Cat. No. 95-016106 and 95-0166C6). The hAMYR3 is a hetero-oligomer of the calcitonin receptor (Isoform 2; Gene ID 799) and RAMPS (Gene ID 10268) that forms when both genes are expressed in the same cell. The hCT-R cell line expresses only the recombinant human calcitonin receptor gene (Isoform 2; Gene ID 799). Upon activation of hCT-R or hAMYR3 by the test peptides the formation of cAMP is induced and was measured using the AlphaScreen® cAMP Assay kit from Perkin-Elmer (Cat. No. 6760635R).
(§2) Briefly, 1321N1 cells expressing hCT-R or hAMYR3 were seeded in 384-well microtiter plates (Falcon Optilux White, Cat.-No. 10448642) at 5,000 cells in […] growth medium per well (AssayComplete 1321N1 Cell Culture Kit, DiscoveRx Corp.), and incubated for 24 h at 37° C., 5% CO2. On the day of analysis growth medium was removed and the cells were stimulated by adding 10 μL of stimulation buffer (10 […], 0.1% BSA) containing increasing concentrations of test peptides, and incubation for 45 min at room temperature. The stimulation was stopped by adding 5.6 μL/well donor bead detection mix (5 mM Hepes pH7.4, 0.5% TWEEN 20, 0.1% BSA, 0.05 mg/mL donor beads, 62.5 nM biotinylated cAMP) and 4.5 μL/well acceptor bead solution (5 mM Hepes pH7.4, 0.5% TWEEN 20, 0.1% BSA, 0.05 mg/mL acceptor beads). After thorough mixing the plates were incubated in the dark for 1 h at room temperature and the cAMP content of the resulting cell lysates was estimated according to the AlphaScreen® cAMP Assay manufacturer's instructions. EC50 values were estimated by computer-aided curve fitting of results of at least 7 different compound concentrations.

Experiment [2] concerns the target T2, recombinant human calcitonin receptor (hCT-R) (Homo sapiens, UniProt P30988).
T2 construct: host or cells: human astrocytoma cell line 1321N1
T2 sequence (P30988 25-474): T1 sequence (P30988 25-474)
Briefly: hCT-R cAMP assay (AlphaScreen) in 1321N1 cells. It is filed as cell-based. The conditions noted are these: cAMP formation, 45 min stimulation.
Description: as §1, §2

On to `CC[C@H](C)[C@@H](C(=O)N[C@@H](CC(C)C)C(=O)N[C@@H](CO)C(=O)N[C@@H](CO)C(=O)N[C@H](C(=O)N[C@@H](CCC(=O)O)C(=O)N[C@H](C(=O)NCC(=O)N[C@@H](CO)C(=O)N[C@@H](CC(N)=O)C(=O)N[C@H](C(=O)N1C[C@H](O)C[C@H]1C(N)=O)[C@@H](C)O)C(C)C)[C@@H](C)O)N(C)C(=O)[C@H](C)NC(=O)CN(C)C(=O)[C@H](Cc1ccccc1)NC(=O)[C@@H](NC(=O)[C@@H](NC(=O)[C@H](CCCNC(=N)N)NC(=O)[C@H](CCC(N)=O)NC(=O)[C@H](CC(C)C)NC(=O)[C@H](Cc1ccccc1)NC(=O)[C@H](CCCC(=O)O)NC(=O)[C@H](C)NC(=O)[C@H](CC(C)C)NC(=O)[C@H](CCCNC(=N)N)NC(=O)[C@H](CCC(=O)O)NC(=O)[C@@H](NC(=O)[C@H](C)NC(=O)[C@@H]1CCCNC(=O)C[C@H](NC(=O)[C@H](CCCNC(=N)N)NC(=O)CC[C@H](NC(=O)CCCCCCCCCCCCCCCCCCC(=O)O)C(=O)O)C(=O)NCC(=O)N[C@@H]([C@@H](C)O)C(=O)N[C@@H](C)C(=O)N[C@@H]([C@@H](C)O)C(=O)N1)[C@@H](C)O)[C@@H](C)O)[C@@H](C)O` [Compound 23, [19CD]-isoGlu-RD()GTAT-Orn()-ATERLA-Aad-FLQRTTF-Gly(Me)-A-Ile(Me)-LSSTEVGSNT-Hyp-NH2] ({C20 diacid-γGlu}-RDGTAT[Orn]ATERLA[Aad]FLQRTTF[Sar]A[NMeI]LSSTEVGSNT[Hyp]-NH2; lactam 2-7), for which the EC50 stood at 0.706 nM in experiment [1] and 1.93 nM in experiment [2].

`CC[C@H](C)[C@@H](C(=O)N1CCC[C@H]1C(=O)N[C@@H](CO)C(=O)N[C@@H](CO)C(=O)N[C@H](C(=O)N[C@@H](CCC(=O)O)C(=O)N[C@H](C(=O)NCC(=O)N[C@@H](CO)C(=O)N[C@@H](CC(N)=O)C(=O)N[C@H](C(=O)N1C[C@H](O)C[C@H]1C(N)=O)[C@@H](C)O)C(C)C)[C@@H](C)O)N(C)C(=O)[C@H](C)NC(=O)CN(C)C(=O)[C@H](Cc1ccccc1)NC(=O)[C@@H](NC(=O)[C@@H](NC(=O)[C@H](CCCNC(=N)N)NC(=O)[C@H](CCC(N)=O)NC(=O)[C@H](CC(C)C)NC(=O)[C@H](Cc1ccccc1)NC(=O)[C@H](CCCC(=O)O)NC(=O)[C@H](C)NC(=O)[C@H](CC(C)C)NC(=O)[C@H](CCCNC(=N)N)NC(=O)[C@H](CCC(=O)O)NC(=O)[C@@H](NC(=O)[C@H](C)NC(=O)[C@@H]1CCCNC(=O)C[C@H](NC(=O)[C@H](CCCNC(=N)N)NC(=O)CC[C@H](NC(=O)CCCCCCCCCCCCCCCCCCC(=O)O)C(=O)O)C(=O)NCC(=O)N[C@@H]([C@@H](C)O)C(=O)N[C@@H](C)C(=O)N[C@@H]([C@@H](C)O)C(=O)N1)[C@@H](C)O)[C@@H](C)O)[C@@H](C)O` [Compound 24, [19CD]-isoGlu-RD()GTAT-Orn()-ATERLA-Aad-FLQRTTF-Gly(Me)-A-Ile(Me)-PSSTEVGSNT-Hyp-NH2] ({C20 diacid-γGlu}-RDGTAT[Orn]ATERLA[Aad]FLQRTTF[Sar]A[NMeI]PSSTEVGSNT[Hyp]-NH2; lactam 2-7): the EC50 in experiment [1] came to 0.013 nM; in experiment [2], 0.038 nM.

For `CC[C@H](C)[C@@H](C(=O)N[C@@H](CC(C)C)C(=O)N[C@@H](CO)C(=O)N[C@@H](CO)C(=O)N[C@H](C(=O)N[C@@H](CCC(=O)O)C(=O)N[C@H](C(=O)NCC(=O)N[C@@H](CO)C(=O)N[C@@H](CC(N)=O)C(=O)N[C@H](C(=O)N1C[C@H](O)C[C@H]1C(N)=O)[C@@H](C)O)C(C)C)[C@@H](C)O)N(C)C(=O)[C@H](C)NC(=O)CN(C)C(=O)[C@H](Cc1ccccc1)NC(=O)[C@H](C)NC(=O)[C@H](C)NC(=O)[C@H](CCCNC(=N)N)NC(=O)[C@H](CCC(N)=O)NC(=O)[C@H](CC(C)C)NC(=O)[C@H](Cc1ccccc1)NC(=O)[C@H](CCCC(=O)O)NC(=O)[C@H](C)NC(=O)[C@H](CC(C)C)NC(=O)[C@H](CCCNC(=N)N)NC(=O)[C@H](CCC(=O)O)NC(=O)[C@@H](NC(=O)[C@H](C)NC(=O)[C@@H]1CCCNC(=O)C[C@H](NC(=O)[C@H](CCCNC(=N)N)NC(=O)CC[C@H](NC(=O)CCCCCCCCCCCCCCCCCCC(=O)O)C(=O)O)C(=O)NCC(=O)N[C@@H]([C@@H](C)O)C(=O)N[C@@H](C)C(=O)N[C@@H]([C@@H](C)O)C(=O)N1)[C@@H](C)O` [Compound 26, [19CD]-isoGlu-RD()GTAT-Orn()-ATERLA-Aad-FLQRAAF-Gly(Me)-A-Ile(Me)-LSSTEVGSNT-Hyp-NH2] ({C20 diacid-γGlu}-RDGTAT[Orn]ATERLA[Aad]FLQRAAF[Sar]A[NMeI]LSSTEVGSNT[Hyp]-NH2; lactam 2-7), the EC50 in experiment [1] amounted to 0.12 nM; in experiment [2], 0.769 nM.

Take `CC[C@H](C)[C@@H](C(=O)N[C@@H](CC(C)C)C(=O)N[C@@H](CO)C(=O)N[C@@H](CO)C(=O)N[C@H](C(=O)N[C@@H](CCC(=O)O)C(=O)N[C@H](C(=O)NCC(=O)N[C@@H](CO)C(=O)N[C@@H](CC(N)=O)C(=O)N[C@H](C(=O)N1C[C@H](O)C[C@H]1C(N)=O)[C@@H](C)O)C(C)C)[C@@H](C)O)N(C)C(=O)[C@H](C)NC(=O)CN(C)C(=O)[C@H](Cc1ccccc1)NC(=O)[C@@H](NC(=O)CNC(=O)[C@H](CCCNC(=N)N)NC(=O)[C@H](CCC(N)=O)NC(=O)[C@H](CC(C)C)NC(=O)[C@H](Cc1ccccc1)NC(=O)[C@H](CCCC(=O)O)NC(=O)[C@H](C)NC(=O)[C@H](CC(C)C)NC(=O)[C@H](CCCNC(=N)N)NC(=O)[C@H](CCC(=O)O)NC(=O)[C@@H](NC(=O)[C@H](C)NC(=O)[C@@H]1CCCNC(=O)C[C@H](NC(=O)[C@H](CCCNC(=N)N)NC(=O)CC[C@H](NC(=O)CCCCCCCCCCCCCCCCCCC(=O)O)C(=O)O)C(=O)N[C@@H](CCC(N)=O)C(=O)N[C@@H]([C@@H](C)O)C(=O)N[C@@H](C)C(=O)N[C@@H]([C@@H](C)O)C(=O)N1)[C@@H](C)O)[C@@H](C)O` [Compound 28, [19CD]-isoGlu-RD()QTAT-Orn()-ATERLA-Aad-FLQRGTF-Gly(Me)-A-Ile(Me)-LSSTEVGSNT-Hyp-NH2] ({C20 diacid-γGlu}-RDQTAT[Orn]ATERLA[Aad]FLQRGTF[Sar]A[NMeI]LSSTEVGSNT[Hyp]-NH2; lactam 2-7): the EC50 in experiment [1] turned out to be 0.268 nM; in experiment [2] it was 1.23 nM.

On to `CC[C@H](C)[C@@H](C(=O)N[C@@H](CC(C)C)C(=O)N[C@@H](CO)C(=O)N[C@@H](CO)C(=O)N[C@H](C(=O)N[C@@H](CCC(=O)O)C(=O)N[C@H](C(=O)NCC(=O)N[C@@H](CO)C(=O)N[C@@H](CC(N)=O)C(=O)N[C@H](C(=O)N1C[C@H](O)C[C@H]1C(N)=O)[C@@H](C)O)C(C)C)[C@@H](C)O)N(C)C(=O)[C@H](C)NC(=O)CN(C)C(=O)[C@H](Cc1ccccc1)NC(=O)[C@H](CO)NC(=O)[C@H](CO)NC(=O)[C@H](CCCNC(=N)N)NC(=O)[C@H](CCC(N)=O)NC(=O)[C@H](CC(C)C)NC(=O)[C@H](Cc1ccccc1)NC(=O)[C@H](CCCC(=O)O)NC(=O)[C@H](C)NC(=O)[C@H](CC(C)C)NC(=O)[C@H](CCCNC(=N)N)NC(=O)[C@H](CCC(=O)O)NC(=O)[C@@H](NC(=O)[C@H](C)NC(=O)[C@@H]1CCCCNC(=O)C[C@H](NC(=O)[C@H](CCCNC(=N)N)NC(=O)CC[C@H](NC(=O)CCCCCCCCCCCCCCCCCCC(=O)O)C(=O)O)C(=O)N2CCC[C@H]2C(=O)N[C@@H]([C@@H](C)O)C(=O)N[C@@H](C)C(=O)N[C@@H]([C@@H](C)O)C(=O)N1)[C@@H](C)O` [Compound 29, [19CD]-isoGlu-RD()PTATK()ATERLA-Aad-FLQRSSF-Gly(Me)-A-Ile(Me)-LSSTEVGSNT-Hyp-NH2] ({C20 diacid-γGlu}-RDPTATKATERLA[Aad]FLQRSSF[Sar]A[NMeI]LSSTEVGSNT[Hyp]-NH2; lactam 2-7), for which the EC50 turned out to be 0.312 nM in experiment [1] and 1.07 nM in experiment [2].
